In patent publication US9550741B2, “Benzoisothiazole compounds and methods of treating schizophrenia” (SHANGHAI INSTITUTE OF PHARMACEUTICAL INDUSTRY, priority 2013, dated 2017):
Like-named read-outs stand apart in the source and are kept apart here.

Experiments:
D2 receptor = D2 receptor (Homo sapiens (Human), UniProt P14416); assay: Dopamine D2 receptor binding test; conditions: read-out: Affinity of the compound to D2 receptor, Ki value
Description: This experiment utilizes the plasmid vector containing the gene of D2 receptor protein for transfecting HEK293 cells by calcium phosphate transfection method.
(§1) Beckman LS-6500 multifunction liquid scintillation counter.

[1] = tested on: Apo.-induced schizophrenic mouse model; assay: Apomorphine-induced schizophrenic mouse model, stereotyped behaviors; assay type: in vivo; conditions: for ED50: Mus musculus, read-out: ED50, inhibition of the total stereotyped behaviors; for Score of stereotyped behaviors: total score in 60 min, mean ± SD
Description: The drugs are administered by gastric gavage. The model control group is given the same volume of solvent by gastric gavage.
Total score of the stereotyped behaviors of the mice such as tail erection and wall-climbing in the 60 minutes is calculated.
The clinical response symptoms of the animals shall be recorded during the administration and test procedures.

[2] = tested on: MK-801-induced schizophrenic mouse model; assay: MK-801-induced schizophrenic mouse model, open-field movement; conditions: for ED50: Mus musculus, po, read-out: ED50, total distance of the open-field movement; for Total distance of the spontaneous movement (cm): 60 min, mean ± SD
5-HT1A receptor = 5-HT1A receptor (Homo sapiens (Human), UniProt P08908); assay: 5-HT1A receptor binding test; conditions: read-out: Affinity of the compound to 5-HT1A receptor, Ki value
Chain of 5-HT1A receptor (P08908 whole entry): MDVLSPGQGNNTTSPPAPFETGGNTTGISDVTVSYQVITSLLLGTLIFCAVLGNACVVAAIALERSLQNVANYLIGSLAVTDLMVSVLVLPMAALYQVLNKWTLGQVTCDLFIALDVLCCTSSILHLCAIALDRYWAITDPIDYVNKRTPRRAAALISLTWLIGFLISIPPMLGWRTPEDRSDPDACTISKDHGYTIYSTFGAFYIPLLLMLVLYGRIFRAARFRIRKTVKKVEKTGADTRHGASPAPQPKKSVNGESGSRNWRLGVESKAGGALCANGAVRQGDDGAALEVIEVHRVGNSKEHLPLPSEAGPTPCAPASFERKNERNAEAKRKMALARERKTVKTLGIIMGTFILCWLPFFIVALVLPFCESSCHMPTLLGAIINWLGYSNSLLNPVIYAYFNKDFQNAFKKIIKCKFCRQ
Description: Cells: HEK-293 cells stably expressing 5-HT1A receptors as obtained by gene recombination are cultured for 3-5 days in cell culture medium DMEM supplemented with 10% serum.
Competitive inhibition ratio of each compound at the concentration of 10 μmol/L to inhibit the binding of [^3H]8-OH-DPAT to 5-HT1A receptor is determined for primary screening.
The components are mixed to homogeneity, and then the above tubes are transferred to water bath at 30° C. (1 h), removed into ice bath immediately, and suction filtered on Harvest (with ice cold Tris eluate for 5 times).

[3] = tested on: Salmonella typhimurium TA98 and TA100; assay: Bacterial reverse mutation test (Ames); conditions: TA98 and TA100, with or without S9
[4] = target: human recombinant D3 receptor (Homo sapiens (Human), UniProt P35462); assay: Dopamine D3 receptor binding test; conditions: read-out: Affinity of the compound to D3 receptor, Ki value
Chain of human recombinant D3 receptor (P35462 whole entry): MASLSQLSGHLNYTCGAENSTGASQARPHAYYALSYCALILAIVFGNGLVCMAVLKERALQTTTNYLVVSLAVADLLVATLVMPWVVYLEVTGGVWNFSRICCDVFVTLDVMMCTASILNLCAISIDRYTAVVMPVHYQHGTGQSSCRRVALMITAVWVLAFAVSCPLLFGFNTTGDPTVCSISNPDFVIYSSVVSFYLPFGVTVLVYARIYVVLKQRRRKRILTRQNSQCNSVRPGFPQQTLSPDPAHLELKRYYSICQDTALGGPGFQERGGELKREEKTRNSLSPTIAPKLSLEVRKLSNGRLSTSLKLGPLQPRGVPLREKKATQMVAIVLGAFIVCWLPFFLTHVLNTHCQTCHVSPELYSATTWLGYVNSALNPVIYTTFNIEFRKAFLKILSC
Description: With [^3H]methyl-spiperone (0.3 nM) as the ligand and (+)-butaclamol (10 LM) for determining non-specific binding, binding tests are carried out on human recombinant D3 receptor (expressed in CHO cells).

in vivo = conditions: mouse
Description: Observation of general symptoms: the animals are observed at about 0.5, 1, 2, 4, and 6 hours respectively, after the first administration on the first day, and observed twice a day, one in the morning and one in the afternoon, on the second to the sixth day. Observed objects include but are not limited to general condition, behavior activity, gait and posture, eye, mouth, nose, gastrointestinal tract, skin and hair, and genitourinary tract. • (2) Statistical Analysis
Body weight is expressed in mean±SD. Comparison among groups is carried out with Levene's test and one-way ANOVA, followed by Dunnet t test if there exists a difference.
(1) The acute toxicity of the representative compounds of □, □, □ classes is investigated with the method of Example 81.

5-HT2A receptor = 5-HT2A receptor (Homo sapiens (Human), UniProt P28223); assay: 5-HT2A receptor binding test; conditions: read-out: Affinity of the compound to 5-HT2A receptor, Ki value
Chain of 5-HT2A receptor (P28223 whole entry): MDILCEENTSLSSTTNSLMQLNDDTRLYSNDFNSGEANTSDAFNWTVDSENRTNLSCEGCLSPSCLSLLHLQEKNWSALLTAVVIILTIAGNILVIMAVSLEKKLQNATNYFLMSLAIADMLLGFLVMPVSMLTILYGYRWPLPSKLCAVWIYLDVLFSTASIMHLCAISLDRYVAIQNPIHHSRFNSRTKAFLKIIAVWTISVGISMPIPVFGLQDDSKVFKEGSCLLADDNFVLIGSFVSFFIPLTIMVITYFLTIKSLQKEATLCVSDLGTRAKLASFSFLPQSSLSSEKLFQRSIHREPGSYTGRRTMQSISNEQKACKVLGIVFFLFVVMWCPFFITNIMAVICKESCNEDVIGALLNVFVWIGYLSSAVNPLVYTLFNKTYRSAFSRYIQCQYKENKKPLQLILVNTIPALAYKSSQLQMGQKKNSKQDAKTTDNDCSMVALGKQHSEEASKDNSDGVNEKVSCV
Description: as §1

[5] = [3H]Spiperone, D2 receptor expressed in HEK293 cells
[6] = single oral administration, Apo.-induced model
[7] = [3H]8-OH-DPAT, HEK-293 cells expressing 5-HT1A receptors
[8] = [3H]methyl-spiperone 0.3 nM, human recombinant D3 receptor in CHO cells
[9] = [3H]-Ketanserin, 5-HT2A receptor expressed in HEK293 cells
[10] = single oral administration, ICR mice, read-out: LD50

Chain of D2 receptor (P14416 whole entry): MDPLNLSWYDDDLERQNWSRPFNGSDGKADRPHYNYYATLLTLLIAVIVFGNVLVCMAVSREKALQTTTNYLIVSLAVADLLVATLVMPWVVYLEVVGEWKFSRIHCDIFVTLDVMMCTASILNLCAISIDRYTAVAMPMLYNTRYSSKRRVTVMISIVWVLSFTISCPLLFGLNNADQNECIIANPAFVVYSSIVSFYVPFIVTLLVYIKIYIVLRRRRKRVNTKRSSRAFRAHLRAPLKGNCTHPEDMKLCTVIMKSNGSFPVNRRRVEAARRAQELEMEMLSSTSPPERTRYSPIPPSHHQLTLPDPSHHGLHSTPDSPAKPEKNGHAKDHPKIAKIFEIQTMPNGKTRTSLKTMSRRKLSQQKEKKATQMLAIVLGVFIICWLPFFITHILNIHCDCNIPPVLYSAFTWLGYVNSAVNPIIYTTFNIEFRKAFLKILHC

## O=S(=O)(N[C@H]1CC[C@H](CCN2CCN(c3nsc4ccccc34)CC2)CC1)c1cccs1 [II-1, trans-N-(4-(2-(4-(benzo[d]isothiazol-3-yl)piperazin-1-yl)ethyl)cyclohexyl)thienyl-2-sulfamide]
D2 receptor; [5]
  Ki: 0.43 nM
[1]; [6]
  ED50: 0.2 mg/kg
[2]
  ED50: 0.074 mg/kg
5-HT1A receptor; [7]
  Ki: 3.3 nM
[3]
  Ames test result (colonies with reverse mutations): negative
[4]; [8]
  Ki: 0.043 nM
In vivo; ICR, po
  LD50 at 6 days: > 2000 mg/kg

## O=C(N[C@H]1CC[C@H](CCN2CCN(c3nsc4ccccc34)CC2)CC1)c1cc2cc([N+](=O)[O-])ccc2[nH]1 [Compound I-15, trans-N-(4-(2-(4-(benzo[d]isothiazol-3-yl)piperazin-1-yl)ethyl)cyclohexyl)-5-nitro-1H-indolyl-2-carboxamide]
D2 receptor; [5]
  Ki: 21.3 nM
5-HT1A receptor; [7]
  Ki: 8.45 nM
5-HT2A receptor; [9]
  Ki: 2.65 nM
[4]; [8]
  Ki: 4.03 nM

## O=C(N[C@H]1CC[C@H](CCN2CCN(c3nsc4ccccc34)CC2)CC1)c1cc2ccccc2s1 [Compound I-6, trans-N-(4-(2-(4-(benzo[d]isothiazol-3-yl)piperazin-1-yl)ethyl)cyclohexyl)benzo[b]thienyl-2-carboxamide]
D2 receptor; [5]
  Ki: 1.81 nM
[1]; [6]
  ED50: 0.23 mg/kg
[1]; apomorphine mouse model, oral
  effect on stereotyped behaviors (in words): greater improvement ratio than RGH-188
[1]; single oral administration 0.12 mg/kg
  Score of stereotyped behaviors: 23.02 ± 8.32
[1]; single oral administration 0.40 mg/kg
  Score of stereotyped behaviors: 4.01 ± 3.65
[1]; single oral administration 0.90 mg/kg
  Score of stereotyped behaviors: 0.71 ± 0.94
[2]; MK-801 mouse model, oral
  effect on the open-field movement (in words): greater improvement ratio than RGH-188
[2]
  ED50: 0.038 mg/kg
[2]; single oral administration 0.02 mg/kg
  Total distance of the spontaneous movement (cm): 19482.27 ± 11047.75 cm
[2]; single oral administration 0.03 mg/kg
  Total distance of the spontaneous movement (cm): 17280.33 ± 9364.31 cm
[2]; single oral administration 0.05 mg/kg
  Total distance of the spontaneous movement (cm): 11145.52 ± 6988.56 cm
[2]; single oral administration 0.09 mg/kg
  Total distance of the spontaneous movement (cm): 7796.38 ± 4382.94 cm
[3]
  Ames test result (colonies with reverse mutations): negative
5-HT2A receptor
  Ki: 0.72 nM
[4]
  Ki: 0.035 nM
In vivo; ICR, po
  LD50 at 6 days: > 2000 mg/kg

## CC(C)COC(=O)N[C@H]1CC[C@H](CCN2CCN(c3nsc4ccccc34)CC2)CC1 [III-3, trans-N-(4-(2-(4-(benzo[d]isothiazol-3-yl)piperazin-1-yl)ethyl)cyclohexyl)isobutylcarbamate]
[1]; [6]
  ED50: 0.76 mg/kg
[2]
  ED50: 0.061 mg/kg
[3]
  Ames test result (colonies with reverse mutations): negative
In vivo; [10]
  LD50 at 6 days: > 2000 mg/kg

## O=C(N[C@H]1CC[C@@H](CCN2CCN(c3nsc4ccccc34)CC2)CC1)c1cc2ccccc2[nH]1 [Compound I-22, cis-N-(4-(2-(4-(benzo[d]isothiazol-3-yl)piperazin-1-yl)ethyl)cyclohexyl)-1H-indolyl-2-carboxamide]
D2 receptor; [5]
  Ki: 1.9 nM
[1]; [6]
  ED50: 0.59 mg/kg
[2]
  ED50: 0.062 mg/kg
[3]
  Ames test result (colonies with reverse mutations): negative
[4]
  Ki: 0.071 nM
In vivo; ICR, po
  LD50 at 6 days: 1530 mg/kg

## O=S(=O)(N[C@H]1CC[C@H](CCN2CCN(c3nsc4ccccc34)CC2)CC1)c1ccc(Cl)o1 [II-8, trans-N-(4-(2-(4-(benzo[d]isothiazol-3-yl)piperazin-1-yl)ethyl)cyclohexyl)-5-chlorofuryl-2-sulfamide]
D2 receptor; [5]
  Ki: 10.8 nM
5-HT1A receptor; [7]
  Ki: 3.96 nM
5-HT2A receptor; [9]
  Ki: 1.96 nM
[4]; [8]
  Ki: 4.51 nM

## CCc1c(C(=O)N[C@H]2CC[C@H](CCN3CCN(c4nsc5ccccc45)CC3)CC2)sc2ccccc12 [Compound I-13, trans-N-(4-(2-(4-(benzo[d]isothiazol-3-yl)piperazin-1-yl)ethyl)cyclohexyl)-3-ethylbenzo[b]thienyl-2-carboxamide]
D2 receptor; [5]
  Ki: 1.78 nM
5-HT1A receptor; [7]
  Ki: 4.07 nM
5-HT2A receptor; [9]
  Ki: 4.9 nM
[4]; [8]
  Ki: 1.42 nM

## O=C(NCc1ccccc1)N[C@H]1CC[C@H](CCN2CCN(c3nsc4ccccc34)CC2)CC1 [IV-11]
D2 receptor
  Ki: 1.4 nM
[1]; [6]
  ED50, inhibition of the total stereotyped behaviors: 0.53 mg/kg
[2]; single oral administration, MK-801-induced model
  ED50, total distance of the open-field movement: 0.060 mg/kg
5-HT1A receptor
  Ki: 5.3 nM
[3]
  Ames test result (colonies with reverse mutations): negative
5-HT2A receptor; [9]
  Ki: 0.91 nM
[4]
  Ki: 0.18 nM

## COC(=O)N[C@H]1CC[C@@H](CCN2CCN(c3nsc4ccccc34)CC2)CC1 [III-14, cis-(4-(2-(4-(benzo[d]isothiazol-3-yl)piperazin-1-yl)ethyl)cyclohexyl)methylcarbamate]
[1]; [6]
  ED50: 0.45 mg/kg
[2]
  ED50: 0.058 mg/kg
[3]
  Ames test result (colonies with reverse mutations): negative
In vivo; [10]
  LD50 at 6 days: 1080 mg/kg

## O=C(N[C@H]1CC[C@H](CCN2CCN(c3nsc4ccccc34)CC2)CC1)OCc1ccccc1 [III-11]
[1]; [6]
  ED50: 0.1 mg/kg
[2]
  ED50: 0.092 mg/kg
[3]
  Ames test result (colonies with reverse mutations): negative
In vivo; [10]
  LD50 at 6 days: 1240 mg/kg

## Cc1ccsc1C(=O)N[C@H]1CC[C@H](CCN2CCN(c3nsc4ccccc34)CC2)CC1 [Compound I-11, trans-N-(4-(2-(4-(benzo[d]isothiazol-3-yl)piperazin-1-yl)ethyl)cyclohexyl)-3-methylthienyl-2-carboxamide]
D2 receptor; [5]
  Ki: 4.81 nM
5-HT1A receptor; [7]
  Ki: 2.84 nM
5-HT2A receptor; [9]
  Ki: 2.01 nM
[4]; [8]
  Ki: 0.37 nM

## CN(C(=O)N[C@H]1CC[C@H](CCN2CCN(c3nsc4ccccc34)CC2)CC1)c1ccccc1 [IV-6, trans-3-(4-(2-(4-(benzo[d]isothiazol-3-yl)piperazin-1-yl)ethyl)cyclohexyl)-1-methyl-1-phenylurea]
[1]; [6]
  ED50: 0.48 mg/kg
[2]
  ED50: 0.084 mg/kg
5-HT1A receptor; [7]
  Ki: 4.6 nM
[3]
  Ames test result (colonies with reverse mutations): negative
[4]
  Ki: 0.13 nM
In vivo; ICR, po
  LD50 at 6 days: 1390 mg/kg

## O=C(N[C@H]1CC[C@H](CCN2CCN(c3nsc4ccccc34)CC2)CC1)c1cc2ccccc2[nH]1 [Compound I-4, trans-N-(4-(2-(4-(benzo[d]isothiazol-3-yl)piperazin-1-yl)ethyl)cyclohexyl)-1H-indolyl-2-carboxamide]
D2 receptor; [5]
  Ki: 0.43 nM
[1]; [6]
  ED50: 0.37 mg/kg
[2]
  ED50: 0.073 mg/kg
[3]
  Ames test result (colonies with reverse mutations): negative
[4]
  Ki: 0.029 nM
In vivo; ICR, po
  LD50 at 6 days: > 2000 mg/kg

## O=C(Nc1ccccc1)N[C@H]1CC[C@H](CCN2CCN(c3nsc4ccccc34)CC2)CC1 [IV-1, trans-1-(4-(2-(4-(benzo[d]isothiazol-3-yl)piperazin-1-yl)ethyl)cyclohexyl)-3-phenylurea]
D2 receptor; [5]
  Ki: 1.06 nM
5-HT1A receptor; [7]
  Ki: 3.65 nM
5-HT2A receptor; [9]
  Ki: 0.83 nM
[4]; [8]
  Ki: 1.42 nM

## O=S(=O)(N[C@H]1CC[C@H](CCN2CCN(c3nsc4ccccc34)CC2)CC1)c1cc2ccccc2o1 [II-5, trans-N-(4-(2-(4-(benzo[d]isothiazol-3-yl)piperazin-1-yl)ethyl)cyclohexyl)benzofuryl-2-sulfamide]
D2 receptor; [5]
  Ki: 0.58 nM
[1]; [6]
  ED50: 0.64 mg/kg
[2]
  ED50: 0.088 mg/kg
5-HT1A receptor; [7]
  Ki: 10.6 nM
[3]
  Ames test result (colonies with reverse mutations): negative
[4]
  Ki: 0.085 nM
In vivo; ICR, po
  LD50 at 6 days: 1100 mg/kg
